Structures can show the parent of a compound that is named as a salt.
What was measured:
Assay type in all cases: in vivo
[1] = test system: hair-deficient mice called "nude" (nu/nu); assay: Hair growth in nude mice, oral drug daily without resting on weekends (Example 2); conditions: for Score of Photos 1+ (Number of animals with at least 1 of 5 photos showing positive hair growth) / Score of Photos 2+ (Number of animals with at least 2 of 5 photos showing positive hair growth): Example 2, daily, eleven week old mice; for inducing hair growth, compared with minoxidil: summary of Table I in words
Source text: (§1) The present invention is illustrated by the Examples, below. Examples 1-3 illustrate the effect of minoxidil sulfate (a compound of the present invention) and minoxidil (the corresponding N-oxide) in genetically identical hair-deficient mice called "nude" (nu/nu) (see Flanagen, Genet. Res. 8:295-309 (1966)). […] All mice in the species mus grow hair in a definite, 20 day cycle, going from head to tail (see Barom, Acta Path. Micro. Scan. 34: 521-541 (1954)). "Nude" mice have the same pattern (see Eton, Transplantation 22: 217-222 (1976)). Hair fails to appear in the nude mouce since it never emerges due to the fact that the hair shaft is incompletely formed, poorly keratinized, or both. The nacent hair shafts fragment within the follicle and thus never emerge or break near the skin surface. The hair produced in the nude mice treated with the compounds described below is more normal and mechanically competent to emerge and persit. Eventually, however, even the hair produced in the drug treated animals falls out due to the genetic defect of these animals. Nonetheless, significant differences in hair growth can be observed in the drug treated animals as compared to the control animals during the twenty day cycle.
(§2) In the Examples, five photographs were taken of the animals every six days over a four week period.
Eleven week old mice from the same group fo animals as used in Example 1 were treated by oral administration of 0.25 ml of either minoxidil or minoxidil sulfate in water daily without resting on weekends. Weights were assumed to be an average of 25 g per animal for dosing purposes.

Balb/c nu/nu male mice = assay: Hair growth in nude mice, daily oral or topical drug (Example 3); conditions: six week old mice
Source text: as §1, §2
Six week old Balb/c nu/nu male mice were given daily oral drug (without resting on weekends) in 0.25 ml water. Topical minoxidil sulfate was applied in 0.25 ml of a propylene glycol, ethanol, and watervehicle.

stumptail Macque monkeys = assay: Hair growth rate on the scalp of balding monkeys, topical solution (Example 4); conditions: for Mean wt. (clipped hair, 2.54 cm square area of treated scalp): topical daily, 250 microliters of 750 mg in 50 ml acetone:N-methylpyrrolidone 94:6
Description: Topical minoxidil sulfate solution was applied to a group of 6 stumptail Macque monkeys daily, 7 days/ week. The topical minoxidil sulfate solution was prepared by dissolving 750 mg of minoxidil sulfate in 50 ml of a 94:6 volume:volume solution of acetone: N-methylpyrrolidone. A second group of 6 animals served as controls and received vehicle only. the volume per application was 250 microliters applied to the frontal scalp with an art brush. Hair growth rate within a 2.54 cm (1 inch) square area of treated scalp was assessed by quantitatively clipping the hair at successive intervals of 42 days, 21 days and 21 days and weighing the residue.

[2] = 20 mg/kg topical in propylene glycol, ethanol and water vehicle
[3] = 40 mg/kg topical in propylene glycol, ethanol and water vehicle

## Nc1cc(N2CCCCC2)nc(N)[n+]1OS(=O)(=O)[O-] [Minoxidil Sulfate, 2,6-Diamino-4-(1-piperidinyl)-1-(sulfoxy)-pyrimidinium hydroxide, inner salt]
[1]; 20 mg/kg oral
  Score of Photos 1+ (Number of animals with at least 1 of 5 photos showing positive hair growth): 4/5
  Score of Photos 2+ (Number of animals with at least 2 of 5 photos showing positive hair growth): 3/5
[1]; 40 mg/kg oral
  Score of Photos 1+ (Number of animals with at least 1 of 5 photos showing positive hair growth): 3/5
  Score of Photos 2+ (Number of animals with at least 2 of 5 photos showing positive hair growth): 1/5
[1]; at 20 mg/kg
  inducing hair growth, compared with minoxidil: significantly better than minoxidil
[1]; at 40 mg/kg
  inducing hair growth, compared with minoxidil: equipotent to or better than minoxidil
Balb/c nu/nu male mice; 5 mg/kg oral, daily
  Score of Photos 1+ (Number of animals with at least 1 of 5 photos showing positive hair growth): 2/5
  Score of Photos 2+ (Number of animals with at least 2 of 5 photos showing positive hair growth): 1/5
Balb/c nu/nu male mice; 10 mg/kg oral, daily
  Score of Photos 1+ (Number of animals with at least 1 of 5 photos showing positive hair growth): 1/5
  Score of Photos 2+ (Number of animals with at least 2 of 5 photos showing positive hair growth): 1/5
Balb/c nu/nu male mice; 20 mg/kg oral, daily
  Score of Photos 1+ (Number of animals with at least 1 of 5 photos showing positive hair growth): 2/5
  Score of Photos 2+ (Number of animals with at least 2 of 5 photos showing positive hair growth): 1/5
Balb/c nu/nu male mice; [2]
  Score of Photos 1+ (Number of animals with at least 1 of 5 photos showing positive hair growth): 2/5
  Score of Photos 2+ (Number of animals with at least 2 of 5 photos showing positive hair growth): 0/5
Balb/c nu/nu male mice; 40 mg/kg oral, daily
  Score of Photos 1+ (Number of animals with at least 1 of 5 photos showing positive hair growth): 3/5
  Score of Photos 2+ (Number of animals with at least 2 of 5 photos showing positive hair growth): 0/5
Balb/c nu/nu male mice; [3]
  Score of Photos 1+ (Number of animals with at least 1 of 5 photos showing positive hair growth): 2/5
  Score of Photos 2+ (Number of animals with at least 2 of 5 photos showing positive hair growth): 1/5
Stumptail Macque monkeys; Collection 1 (interval of 42 days)
  Mean wt. (clipped hair, 2.54 cm square area of treated scalp): 76 ±20 uG/day
Stumptail Macque monkeys; Collection 2 (next interval of 21 days)
  Mean wt. (clipped hair, 2.54 cm square area of treated scalp): 313 ±67 uG/day
Stumptail Macque monkeys; Collection 3 (last interval of 21 days)
  Mean wt. (clipped hair, 2.54 cm square area of treated scalp): 343 ±52 uG/day
Stumptail Macque monkeys; balding monkeys, summary of Table II in words
  hair growth following topical application to the scalp: stimulates hair growth
Stumptail Macque monkeys; by the third collection, summary of Table II in words
  increase in hair growth versus vehicle: statistically significant increase in hair growth

Source: patent EP0210227B1, “PYRIMIDINE SULFATES FOR HAIR GROWTH” (THE UPJOHN COMPANY, priority 1985, dated 1986)
